Results on one molecule are retold here after ChEMBL document CHEMBL2074376, “Differential regulation of mdr genes in response to 2-acetylaminofluorene treatment in cultured rat and human hepatocytes” (Carcinogenesis, 1996).

The target in data set [1] is ATP-dependent translocase ABCB1 (Homo sapiens, UniProt P08183). Description: (§1) TP_TRANSPORTER: Northern blot from primary hepatocytes. The class given is functional, cell-based, Hepatocyte.
Data set [2] concerns the target ATP-dependent translocase ABCB1 (Rattus norvegicus, UniProt P43245). Described as §1. It counts as functional, cell-based, Hepatocyte.

ATP-dependent translocase ABCB1 (Homo sapiens, UniProt P08183), sequence (P08183 whole entry): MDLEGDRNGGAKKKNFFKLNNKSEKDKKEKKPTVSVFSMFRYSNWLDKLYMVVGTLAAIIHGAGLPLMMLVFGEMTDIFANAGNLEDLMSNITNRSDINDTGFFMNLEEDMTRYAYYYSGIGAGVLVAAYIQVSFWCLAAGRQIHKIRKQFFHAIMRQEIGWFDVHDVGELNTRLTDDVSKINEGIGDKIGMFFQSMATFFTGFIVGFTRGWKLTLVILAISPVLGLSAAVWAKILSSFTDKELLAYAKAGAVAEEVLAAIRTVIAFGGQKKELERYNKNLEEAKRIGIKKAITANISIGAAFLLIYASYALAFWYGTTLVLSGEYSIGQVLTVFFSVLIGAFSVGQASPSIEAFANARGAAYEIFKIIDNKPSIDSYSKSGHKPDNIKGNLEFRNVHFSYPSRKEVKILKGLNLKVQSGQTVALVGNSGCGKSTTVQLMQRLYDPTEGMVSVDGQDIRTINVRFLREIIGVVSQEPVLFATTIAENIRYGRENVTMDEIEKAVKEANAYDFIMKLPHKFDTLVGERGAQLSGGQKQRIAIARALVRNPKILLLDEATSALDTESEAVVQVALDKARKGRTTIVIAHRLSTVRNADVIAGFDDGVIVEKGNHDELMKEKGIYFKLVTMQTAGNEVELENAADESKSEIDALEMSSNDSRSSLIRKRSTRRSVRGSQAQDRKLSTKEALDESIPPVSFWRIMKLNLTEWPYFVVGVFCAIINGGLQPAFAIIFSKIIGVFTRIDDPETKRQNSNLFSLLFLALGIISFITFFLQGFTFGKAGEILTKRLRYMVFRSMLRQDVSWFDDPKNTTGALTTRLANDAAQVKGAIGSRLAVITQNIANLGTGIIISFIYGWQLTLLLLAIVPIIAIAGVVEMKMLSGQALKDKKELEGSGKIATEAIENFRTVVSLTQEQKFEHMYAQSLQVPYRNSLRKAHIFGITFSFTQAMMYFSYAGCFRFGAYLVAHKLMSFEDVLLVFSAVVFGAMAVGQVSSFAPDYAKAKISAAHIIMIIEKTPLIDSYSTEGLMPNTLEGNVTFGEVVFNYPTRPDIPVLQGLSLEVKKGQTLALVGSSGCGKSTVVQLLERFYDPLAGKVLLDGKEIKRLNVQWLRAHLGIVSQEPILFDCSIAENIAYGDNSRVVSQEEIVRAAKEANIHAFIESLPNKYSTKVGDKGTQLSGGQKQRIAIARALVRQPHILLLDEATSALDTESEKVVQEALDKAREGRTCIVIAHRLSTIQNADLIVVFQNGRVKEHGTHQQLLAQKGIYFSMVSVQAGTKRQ
ATP-dependent translocase ABCB1 (Rattus norvegicus, UniProt P43245), sequence (P43245 whole entry): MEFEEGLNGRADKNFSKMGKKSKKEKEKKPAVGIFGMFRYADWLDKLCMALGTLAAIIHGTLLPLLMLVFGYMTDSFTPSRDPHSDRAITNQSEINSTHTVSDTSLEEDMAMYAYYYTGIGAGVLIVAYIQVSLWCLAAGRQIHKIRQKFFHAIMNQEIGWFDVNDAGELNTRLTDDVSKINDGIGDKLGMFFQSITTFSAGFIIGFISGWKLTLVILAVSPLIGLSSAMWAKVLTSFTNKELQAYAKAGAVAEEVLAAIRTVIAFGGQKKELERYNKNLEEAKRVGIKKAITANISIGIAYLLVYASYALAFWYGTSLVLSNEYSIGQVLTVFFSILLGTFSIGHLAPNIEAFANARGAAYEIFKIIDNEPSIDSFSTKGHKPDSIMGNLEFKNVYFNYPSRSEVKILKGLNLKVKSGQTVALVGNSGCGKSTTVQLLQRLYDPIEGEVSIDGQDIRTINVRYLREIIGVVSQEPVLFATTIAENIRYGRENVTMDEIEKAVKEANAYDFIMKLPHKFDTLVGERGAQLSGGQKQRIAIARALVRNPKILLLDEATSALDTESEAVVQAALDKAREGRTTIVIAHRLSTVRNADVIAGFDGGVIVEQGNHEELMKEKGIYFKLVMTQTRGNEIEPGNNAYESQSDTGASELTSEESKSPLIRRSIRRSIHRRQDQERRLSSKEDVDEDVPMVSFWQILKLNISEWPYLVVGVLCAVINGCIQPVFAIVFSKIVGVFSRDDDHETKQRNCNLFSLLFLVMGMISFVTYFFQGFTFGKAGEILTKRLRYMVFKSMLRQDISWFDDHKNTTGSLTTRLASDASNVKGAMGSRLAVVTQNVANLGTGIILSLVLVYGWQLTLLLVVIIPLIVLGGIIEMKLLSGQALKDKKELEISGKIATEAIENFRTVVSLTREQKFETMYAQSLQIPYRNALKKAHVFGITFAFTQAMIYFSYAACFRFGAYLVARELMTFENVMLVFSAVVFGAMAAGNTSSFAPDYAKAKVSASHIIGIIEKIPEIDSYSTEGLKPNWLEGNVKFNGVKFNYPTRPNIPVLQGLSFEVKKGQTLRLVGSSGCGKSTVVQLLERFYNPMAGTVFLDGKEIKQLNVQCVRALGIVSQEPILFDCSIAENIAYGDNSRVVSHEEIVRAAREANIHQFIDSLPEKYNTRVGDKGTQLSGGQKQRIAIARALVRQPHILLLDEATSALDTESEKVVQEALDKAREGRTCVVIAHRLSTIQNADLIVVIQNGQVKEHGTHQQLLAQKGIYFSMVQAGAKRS

As for `CC(=O)Nc1ccc2c(c1)Cc1ccccc1-2` [2-ACETYLAMINOFLUORENE], the Activity result in data set [1] is “is not an inducer [-]”; in data set [2], “inducer [+]”.
